Assays:
[1] = Sensory evaluation of aqueous solution II containing (E)-2-octenal 10 ppb: off-flavor intensity and masking component intensity; details: (E)-2-octenal 10 ppb, average score 0-4
How it was run: (§1)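 Scores run 0–4 for two attributes: off-flavor intensity, judged against the unmasked spiked solution (4) and degradant-free water (0), and nootkatone's own perceptibility, judged absolutely. A panel of eight experienced tasters evaluated aqueous solutions of the degradation component containing added nootkatone.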

[2] = Overall conclusion of the sensory evaluation across mayonnaises I and II
Method: (§2) To commercially available mayonnaise (“Kewpie Mayonnaise” manufactured by Kewpie Corporation), each degradation component was added to prepare degradation component-added mayonnaises I and II at the concentrations listed in Table 20. To these degradation component-added mayonnaises, oleic acid was added at the concentrations listed in Table 21 to confirm the intensity of the off-flavor (masking effect) and the intensity of the masking components (impact on the flavor of the mayonnaise itself) for each sample.
(§3) Six experienced panelists were selected to conduct a sensory evaluation similar to that of Example 1.

[3] = Sensory evaluation of aqueous solution III containing 1-octen-3-one 1 ppb: off-flavor intensity and masking component intensity; details: 1-octen-3-one 1 ppb, average score 0-4
How it was run: as §1

[4] = Overall conclusion of the sensory evaluation across aqueous solutions I to VI
How it was run: as §1

[5] = Sensory evaluation of aqueous solution IV containing 1,5-octadien-3-one 100 ppt: off-flavor intensity and masking component intensity; details: aqueous solution IV, 1,5-octadien-3-one 100 ppt, average score 0-4
How it was run: as §1

[6] = Sensory evaluation of aqueous solution I containing (E)-2-nonenal 1 ppb: off-flavor intensity and masking component intensity; details: (E)-2-nonenal 1 ppb, average score 0-4
How it was run: as §1

[7] = Sensory evaluation of degradation component-added mayonnaise I (1-octen-3-ol 200 ppb); details: average panel score
Method: as §2, §3

[8] = Sensory evaluation of aqueous solution VI containing 1,5-octadien-3-ol 10 ppb: off-flavor intensity and masking component intensity; details: aqueous solution VI, 1,5-octadien-3-ol 10 ppb, average score 0-4
How it was run: as §1

[9] = Sensory evaluation of aqueous solution V containing 1-octen-3-ol 10 ppb: off-flavor intensity and masking component intensity; details: 1-octen-3-ol 10 ppb, average score 0-4
How it was run: as §1

CCCCCCCC/C=C\CCCCCCCC(=O)O [Oleic Acid, oleic acid]
Off-Flavor Intensity ([1]; 1 ppm added): 1.6 points | Off-Flavor Intensity ([1]; 5 ppm added): 1.1 points | Off-Flavor Intensity ([1]; 10 ppb added): 2.8 points | Off-Flavor Intensity ([1]; 10 ppm added): 1.1 points | Off-Flavor Intensity ([1]; 50 ppb added): 2.5 points | Off-Flavor Intensity ([1]; 100 ppb added): 1.9 points | Off-Flavor Intensity ([1]; 500 ppb added): 1.5 points | concentration that masks the off-flavor and does not affect the flavor of the mayonnaise itself, lower limit [2]: ≥ 500 ppb | concentration that masks the off-flavor and does not affect the flavor of the mayonnaise itself, upper limit [2]: ≤ 100 ppm | Off-Flavor Intensity ([3]; 1 ppm added): 2.8 points | Off-Flavor Intensity ([3]; 5 ppm added): 2.4 points | Off-Flavor Intensity ([3]; 10 ppb added): 3.5 points | Off-Flavor Intensity ([3]; 10 ppm added): 1.9 points | Off-Flavor Intensity ([3]; 50 ppb added): 3.4 points | Off-Flavor Intensity ([3]; 100 ppb added): 3.3 points | Off-Flavor Intensity ([3]; 500 ppb added): 2.5 points | concentration that masks the off-flavor and does not affect the flavor of the food and/or beverage itself, lower limit [4]: ≥ 10 ppb | concentration that masks the off-flavor and does not affect the flavor of the food and/or beverage itself, upper limit [4]: ≤ 10 ppm | Off-Flavor Intensity ([5]; 1 ppm added): 2.0 points | Off-Flavor Intensity ([5]; 5 ppm added): 1.9 points | Off-Flavor Intensity ([5]; 10 ppb added): 3.4 points | Off-Flavor Intensity ([5]; 10 ppm added): 1.5 points | Off-Flavor Intensity ([5]; 50 ppb added): 3.3 points | Off-Flavor Intensity ([5]; 100 ppb added): 2.9 points | Off-Flavor Intensity ([5]; 500 ppb added): 2.5 points | Off-Flavor Intensity ([6]; 1 ppm added): 1.8 points | Off-Flavor Intensity ([6]; 5 ppm added): 1.4 points | Off-Flavor Intensity ([6]; 10 ppb added): 3.5 points | Off-Flavor Intensity ([6]; 10 ppm added): 1.3 points | Off-Flavor Intensity ([6]; 50 ppb added): 3.1 points | Off-Flavor Intensity ([6]; 100 ppb added): 2.8 points | Off-Flavor Intensity ([6]; 500 ppb added): 2.4 points | Masking Component Intensity ([7]; 1 ppm added): 0.3 | Off-Flavor Intensity ([7]; 1 ppm added): 1.8 | Masking Component Intensity ([7]; 5 ppm added): 0.7 | Off-Flavor Intensity ([7]; 5 ppm added): 1.7 | Masking Component Intensity ([7]; 10 ppm added): 0.8 | Off-Flavor Intensity ([7]; 10 ppm added): 1.2 | Masking Component Intensity ([7]; 50 ppm added): 1.7 | Off-Flavor Intensity ([7]; 50 ppm added): 0.8 | Masking Component Intensity ([7]; 100 ppb added): 0.0 | Off-Flavor Intensity ([7]; 100 ppb added): 3.3 | Masking Component Intensity ([7]; 100 ppm added): 2.2 | Off-Flavor Intensity ([7]; 100 ppm added): 0.5 | Masking Component Intensity ([7]; 500 ppb added): 0.2 | Off-Flavor Intensity ([7]; 500 ppb added): 2.5 | Off-Flavor Intensity ([8]; 1 ppm added): 1.3 points | Off-Flavor Intensity ([8]; 5 ppm added): 1.5 points | Off-Flavor Intensity ([8]; 10 ppb added): 2.6 points | Off-Flavor Intensity ([8]; 10 ppm added): 1.3 points | Off-Flavor Intensity ([8]; 50 ppb added): 2.4 points | Off-Flavor Intensity ([8]; 100 ppb added): 1.9 points | Off-Flavor Intensity ([8]; 500 ppb added): 1.6 points | Off-Flavor Intensity ([9]; 1 ppm added): 1.9 points | Off-Flavor Intensity ([9]; 5 ppm added): 1.8 points | Off-Flavor Intensity ([9]; 10 ppb added): 3.4 points | Off-Flavor Intensity ([9]; 10 ppm added): 1.1 points | Off-Flavor Intensity ([9]; 50 ppb added): 2.6 points | Off-Flavor Intensity ([9]; 100 ppb added): 2.9 points | Off-Flavor Intensity ([9]; 500 ppb added): 2.3 points

Source: patent US20250176599A1, “FLAVOR COMPOSITION AND FOOD AND BEVERAGE” (TAKASAGO INTERNATIONAL CORPORATION, priority 2021, published 2025)
